The term EC50 denotes the midpoint of the concentration-response curve.

Data set [1] deals with DENV-2 16681 strain. The data set can be described thus: DENV-2 antiviral assay (eGFP-labeled virus in Vero cells). Particulars: DENV-2 16681 eGFP, MOI 0.5, 3 days. The class given is cell-based, Dengue virus. The method, then: The antiviral activity of all the compounds of the invention was tested against the DENV-2 16681 strain which was labeled with enhanced green fluorescent protein (eGPF). The culture medium consists of minimal essential medium supplemented with 2% of heat-inactivated fetal calf serum, 0.04% gentamycin (50 mg/mL) and 2 mM of L-glutamine. Vero cells, obtained from ECACC, were suspended in culture medium and 25 μL was added to 384-well plates (2500 cells/well), which already contain the antiviral compounds. Typically, these plates contain a 5-fold serial dilution of 9 dilution steps of the test compound at 200 times the final concentration in 100% DMSO (200 nL). […] Finally, each plate contains wells which are assigned as virus controls (containing cells and virus in the absence of compound), cell controls (containing cells in the absence of virus and compound) and medium controls (containing medium in the absence of cells, virus and compounds). To the wells assigned as medium control, 25 μL of culture medium was added instead of Vero cells. Once the cells are added to the plates, the plates were incubated for 30 minutes at room temperature to allow the cells to distribute evenly within the wells. Next, the plates were incubated in a fully humidified incubator (37° C., 5% CO2) until the next day. Then, DENV-2 strain 16681, labeled with eGFP, was added at a multiplicity of infection (MOI) of 0.5.
Therefore, 15 μL of virus suspension was added to all the wells containing test compound and to the wells assigned as virus control. In parallel, 15 μL of culture medium was added to the medium and cell controls. Next, the plates were incubated for 3 days in a fully humidified incubator (37° C., 5% CO2). At the day of the read out, the eGFP fluorescence was measured using an automated fluorescence microscope at 488 nm (blue laser). Using an in-house LIMS system, inhibition dose response curves for each compound were calculated and the half maximal effective concentration (EC50) was determined. Therefore, the percent inhibition (I) for every test concentration is calculated using the following formula: I=100*(ST−SCC)/(SVC−SCC); ST, SCC and SVC are the amount of eGFP signal in the test compound, cell control and virus control wells, respectively. The EC50 represents the concentration of a compound at which the virus replication is inhibited with 50%, as measured by a 50% reduction of the eGFP fluorescent intensity compared to the virus control. The EC50 is calculated using linear interpolation (Table 1).

Data set [2] relates to DENV-1 strain TC974#666. The data set can be described thus: Tetravalent RT-qPCR assay, serotype 1. The class given is cell-based. Particulars: Dengue virus, DENV1, 72 h; RT-qPCR serotype 1 TC974#666, Vero cells, day 3. How it is done:
(§1) The antiviral activity of the compounds of the invention was tested against DENV-1 strain TC974#666 (NCPV), DENV-2 strain 16681, DENV-3 strain H87 (NCPV) and DENV-4 strain H241 (NCPV) in a RT-qPCR assay. Therefore, Vero cells were infected with either DENV-1, or -2, or -3, or -4 in the presence or absence of test compounds. At day 3 post-infection, the cells were lysed and cell lysates were used to prepare cDNA of both a viral target (the 3′UTR of DENV; Table 2) and a cellular reference gene (1-actin, Table 2). Subsequently, a duplex real time PCR was performed on a Lightcycler480 instrument. The generated Cp value is inversely proportional to the amount of RNA expression of these targets. Inhibition of DENV replication by a test compound results in a shift of Cp's for the 3′UTR gene. On the other hand, if a test compound is toxic to the cells, a similar effect on 1-actin expression will be observed. The comparative ΔΔCp method is used to calculate EC50, which is based on the relative gene expression of the target gene (3′UTR) normalized with the cellular housekeeping gene (1-actin). In addition, CC50 values are determined based on the C, values acquired for the housekeeping gene β-actin.
(§2) The culture medium consisted of minimal essential medium supplemented with 2% of heat-inactivated fetal calf serum, 0.04% gentamycin (50 mg/mL) and 2 mM of L-glutamine. Vero cells, obtained from ECACC, were suspended in culture medium and 75 μL/well was added in 96-well plates (10000 cells/well), which already contain the antiviral compounds. […] In addition, each plate contains wells which are assigned as virus controls (containing cells and virus in the absence of compound) and cell controls (containing cells in the absence of virus and compound). Once the cells were added in the plates, the plates were incubated in a fully humidified incubator (37° C., 5% CO2) until the next day. Dengue viruses serotype-1, 2, 3 and 4 were diluted in order to obtain a Cp of ˜22-24 in the assay. Therefore, 25 μL of virus suspension was added to all the wells containing test compound and to the wells assigned as virus control. In parallel, 25 μL of culture medium was added to the cell controls. Next, the plates were incubated for 3 days in a fully humidified incubator (37° C., 5% CO2). After 3 days, the supernatant was removed from the wells and the cells were washed twice with ice-cold PBS (−100 μL). The cell pellets within the 96-well plates were stored at −80° C. for at least 1 day. Next, RNA was extracted using the Cells-to-CT™ lysis kit, according to the manufacturer's guideline (Life Technologies). The cell lysates can be stored at −80° C. or immediately used in the reverse transcription step.
(§3) In preparation of the reverse transcription step, mix A (table 3A) was prepared and 7.57 μL/well was dispensed in a 96-well plate. After addition of 5 μL of the cell lysates, a five minute denaturation step at 75° C. was performed (table 3B). Afterwards, 7.43 μL of mix B was added (table 3C) and the reverse transcription step was initiated (table 3D) to generate cDNA.
(§4) Finally, a RT-qPCR mix was prepared, mix C (table 4A), and 22.02 μL/well was dispensed in 96-well LightCycler qPCR plates to which 3 μL of cDNA was added and the qPCR was performed according to the conditions in table 4B on a LightCycler 480.
(§5) Using the LightCycler software and an in-house LIMS system, dose response curves for each compound were calculated and the half maximal effective concentration (EC50) and the half maximal cytotoxic concentration (CC50) were determined (Tables 5-8).

The subject of data set [3] is DENV-2 strain 16681. The data set can be described thus: Tetravalent RT-qPCR assay, serotype 2. The class given is cell-based. Particulars: Dengue virus, DENV2, 72 h; RT-qPCR serotype 2 16681, Vero cells, day 3. The method, then:
as §1, §2, §3, §4, §5
Background: Real-time PCR tracks product formation cycle by cycle.

For data set [4], the system named is DENV-3 strain H87. The data set can be described thus: Tetravalent RT-qPCR assay, serotype 3. The class given is cell-based. Particulars: Dengue virus, DENV3, 72 h; RT-qPCR serotype 3 H87, Vero cells, day 3. How it is done: as §1, §2, §3, §4, §5
Data set [5] concerns DENV-4 strain H241. The data set can be described thus: Tetravalent RT-qPCR assay, serotype 4. In kind it is cell-based. Particulars: Dengue virus, DENV4, 72 h; RT-qPCR serotype 4 H241, Vero cells, day 3. The method, then: as §1, §2, §3, §4, §5
The test system of data set [6] is Vero cells. Particulars: African green monkey.
The nature of data set [7]: in vitro. Particulars: African green monkey.

SMILES strings stand for the structures.

As to `COc1cc(NC(C(=O)N2CCc3ccc(S(F)(F)(F)(F)F)cc32)c2ccc(Cl)cc2)cc(OCCCC(=O)O)c1` (single isomer, unassigned) [Compound 1B, 4-(3-((1-(4-chlorophenyl)-2-oxo-2-(6-(pentafluoro-λ^6-sulfanyl)indolin-1-yl)ethyl)amino)-5-methoxyphenoxy)butanoic acid], the EC50 in data set [1] was found to be 0.11 nM; in data set [2], 0.096 nM; in data set [3], 0.18 nM; in data set [4], 1.9 nM; in data set [5], 9.6 nM. The CC50 in data set [6] was 13000 nM.

As for `COc1cc(NC(C(=O)N2CCc3c(C)cc(C(F)(F)F)cc32)c2ccc(Cl)cc2)cc(OCCCC(=O)O)c1` (single isomer, unassigned) [Compound 2B, 4-(3-((1-(4-chlorophenyl)-2-(4-methyl-6-(trifluoromethyl)indolin-1-yl)-2-oxoethyl)amino)-5-methoxyphenoxy)butanoic acid], the EC50 in data set [1] worked out at 0.078 nM; in data set [2], 0.091 nM; in data set [3] it was 0.061 nM; in data set [4] it was 0.85 nM; in data set [5], 10 nM. The CC50 in data set [6] was 14000 nM.

As to `COc1cc(NC(C(=O)N2CCc3c(C)cc(OC(F)(F)F)cc32)c2ccc(Cl)cc2)cc(OCCCC(=O)O)c1` (single isomer, unassigned) [Compound 4B, 4-(3-((1-(4-chlorophenyl)-2-(4-methyl-6-(trifluoromethoxy)indolin-1-yl)-2-oxoethyl)amino)-5-methoxyphenoxy)butanoic acid], the EC50 was determined as 0.057 nM in data set [1]; 0.11 nM in data set [2]; 0.067 nM in data set [3]; 0.92 nM in data set [4]; 12 nM in data set [5]. The same molecule came in with a CC50 in data set [7] of 13000 nM.

Regarding `[2H]C(Nc1cc(OC)cc(OCCCC(=O)O)c1)(C(=O)N1CCc2ccc(OC(F)(F)F)cc21)c1ccc(Cl)cc1` (single isomer, unassigned) [Compound 7A-D, 4-(3-((1-(4-chlorophenyl)-1-deuterio-2-oxo-2-(6-(trifluoromethoxy)indolin-1-yl)ethyl)amino)-5-methoxyphenoxy)butanoic acid], the half-maximal effective concentration (EC50) in data set [1] worked out at 0.1 nM; in data set [2] it was 0.24 nM; in data set [3], 0.16 nM; in data set [4], 2.4 nM; in data set [5], 13 nM. This molecule also displayed a CC50 in data set [7] of 12000 nM.

In turn, `[2H]C(Nc1cc(OC)cc(OCCCC(=O)O)c1)(C(=O)N1CCc2ccc(OC(F)(F)F)cc21)c1ccc(Cl)cc1` (single isomer, unassigned) [Compound 7B-D, 4-(3-((1-(4-chlorophenyl)-1-deuterio-2-oxo-2-(6-(trifluoromethoxy)indolin-1-yl)ethyl)amino)-5-methoxyphenoxy)butanoic acid] came in with an EC50 in data set [1] of 16 nM. For the same molecule, in data set [6], the CC50 is 9600 nM.

As for `COc1cc(NC(C(=O)N2CCc3sc(C(F)(F)F)cc32)c2ccc(Cl)cc2)cc(OCCCC(=O)O)c1` (single isomer, unassigned) [Compound 10A, 4-(3-((1-(4-chlorophenyl)-2-oxo-2-(2-(trifluoromethyl)-5,6-dihydro-4H-thieno[3,2-b]pyrrol-4-yl)ethyl)amino)-5-methoxyphenoxy)butanoic acid], the EC50 in data set [1] came to 0.3 nM; in data set [2] it was 0.22 nM; in data set [3] it was 0.11 nM; in data set [4] it was 4.2 nM; in data set [5], 30 nM. This molecule showed a CC50 in data set [7] of 14000 nM.

In the case of `COc1cc(NC(C(=O)N2CCc3sc(C(F)(F)F)cc32)c2ccc(Cl)cc2)cc(OCCCC(=O)O)c1` (single isomer, unassigned) [Compound 10B, 4-(3-((1-(4-chlorophenyl)-2-oxo-2-(2-(trifluoromethyl)-5,6-dihydro-4H-thieno[3,2-b]pyrrol-4-yl)ethyl)amino)-5-methoxyphenoxy)butanoic acid], in data set [1], the EC50 turned out to be 37 nM. In data set [6], this molecule registered a CC50 of 12000 nM.

Values taken from US11053196B2, “Substituted indoline derivatives as dengue viral replication inhibitors” (JANSSEN PHARMACEUTICALS, INC., priority 2017, dated 2021).
